Results reported in US5698411A, “Method for determining activity of enzymes in metabolically active whole cells” (priority 1995, dated 1997).
Blank lines part the entries; values can stand above or below the molecule they belong to.

Legend:
Assay type in all cases: cell-based, human
lymphocytes [1] = experiment: aberrant enzyme activities in febrile children, lymphocytes (Table 7)
granulocytes [2] = experiment: aberrant enzyme activities in febrile children, granulocytes (Table 7)
lymphocytes [3] = experiment: enzyme activity with fluorogenic substrate, normal lymphocytes (Table 3A)
monocytes = experiment: aberrant enzyme activities in febrile children, monocytes (Table 7)
lymphocytes [4] = experiment: peptidase activity in leukemia and non-leukemia patients, lymphocytes (Table 6C); set-up: unit not given here
Source text: (§1) Artificial intelligence was used to analyze data of cellular enzyme functions, and determine normal and disease states. Peptidases were used to distinguish leukemia from non-leukemia (output pattern). For input patterns lymphocyte and granulocyte cell types were used with aminopeptidases, cathepsins and dipeptidylpeptidase enzyme activities. In this Example, illustrated in Tables 6A-6C, three normals and three leukemia patients were used as known output patterns for the neural network to learn (in practice, the larger the learning set the more accurate unknown prediction will be). Unknowns were then presented to the learned algorithm as shown in the test case examples. Clinical diagnosis was confirmed by physicians. The trained neural network was able to correctly classify the leukemia from the non-leukemia.

[5] = system: metabolically active whole cell; experiment: substrate panel in normals and HIV + patients, TB infection (Table 4); set-up: unit not given here
Experimental: A panel of assay compounds are assembled consisting of Ala-aminopeptidase and Lys-aminopeptidase, Dipeptidyl peptidase IV (Ala-Ala)2 rhodamine 110 and Cathepsin D to indicate possible TB infection in AIDS related cases.
A panel Of enzymatic substrates is performed consisting of Ala-aminopeptidase and Lys-aminopeptidase, Dipeptidyl peptidase IV (Ala-Ala)2 rhodamine 110 and Cathepsin D to indicate possible TB infection in AIDS related cases.

granulocytes [6] = experiment: peptidase activity in leukemia and non-leukemia patients, granulocytes (Table 6C); set-up: unit not given here
Source text: as §1

Structure (SMILES): O=C1OC2(c3ccc(OP(=O)(O)O)cc3Oc3cc(OP(=O)(O)O)ccc32)c2ccccc21 [DPO4, (PO4)2 fluorescein]
aberrant enzyme activity, LYMPHS (lymphocytes [1]; P88 Enteritis): .smallcircle.
aberrant enzyme activity, LYMPHS (lymphocytes [1]; P89 Viral Stomatitis): .smallcircle.
aberrant enzyme activity, LYMPHS (lymphocytes [1]; P92 Adenitis): .smallcircle.
aberrant enzyme activity, LYMPHS (lymphocytes [1]; P95 Viral Syndrome): .smallcircle.
aberrant enzyme activity, LYMPHS (lymphocytes [1]; P96 Viral Syndrome): - (>0.25 Decrease over normal range)
aberrant enzyme activity, LYMPHS (lymphocytes [1]; P97 Pyelonephritis): .smallcircle.
aberrant enzyme activity, LYMPHS (lymphocytes [1]; P99 Viral Syndrome): .smallcircle.
aberrant enzyme activity, LYMPHS (lymphocytes [1]; P101 Fever -- Unknown Origin): .smallcircle.
aberrant enzyme activity, LYMPHS (lymphocytes [1]; P102 UTI): .smallcircle.
aberrant enzyme activity, LYMPHS (lymphocytes [1]; P103 Viral Syndrome): .smallcircle.
aberrant enzyme activity, GRANS (granulocytes [2]; P88 Enteritis): .smallcircle.
aberrant enzyme activity, GRANS (granulocytes [2]; P89 Viral Stomatitis): + (>0.25 Increase over normal range)
aberrant enzyme activity, GRANS (granulocytes [2]; P92 Adenitis): + (>0.25 Increase over normal range)
aberrant enzyme activity, GRANS (granulocytes [2]; P95 Viral Syndrome): .smallcircle.
aberrant enzyme activity, GRANS (granulocytes [2]; P96 Viral Syndrome): .smallcircle.
aberrant enzyme activity, GRANS (granulocytes [2]; P97 Pyelonephritis): .smallcircle.
aberrant enzyme activity, GRANS (granulocytes [2]; P99 Viral Syndrome): .smallcircle.
aberrant enzyme activity, GRANS (granulocytes [2]; P101 Fever -- Unknown Origin): + (>0.25 Increase over normal range)
aberrant enzyme activity, GRANS (granulocytes [2]; P102 UTI): .smallcircle.
aberrant enzyme activity, GRANS (granulocytes [2]; P103 Viral Syndrome): + (>0.25 Increase over normal range)
NORMAL LEUKOCYTE ENZYME ACTIVITY LYMPHS Mean (lymphocytes [3]): 54.29
aberrant enzyme activity, MONOS (monocytes; P88 Enteritis): .smallcircle.
aberrant enzyme activity, MONOS (monocytes; P89 Viral Stomatitis): + (>0.25 Increase over normal range)
aberrant enzyme activity, MONOS (monocytes; P92 Adenitis): + (>0.25 Increase over normal range)
aberrant enzyme activity, MONOS (monocytes; P95 Viral Syndrome): + (>0.25 Increase over normal range)
aberrant enzyme activity, MONOS (monocytes; P97 Pyelonephritis): .smallcircle.
aberrant enzyme activity, MONOS (monocytes; P99 Viral Syndrome): .smallcircle.
aberrant enzyme activity, MONOS (monocytes; P101 Fever -- Unknown Origin): + (>0.25 Increase over normal range)
aberrant enzyme activity, MONOS (monocytes; P102 UTI): .smallcircle.
aberrant enzyme activity, MONOS (monocytes; P103 Viral Syndrome): + (>0.25 Increase over normal range)

Structure (SMILES): CC(=O)Oc1ccc2c(c1)Oc1cc(OC(C)=O)ccc1C21OC(=O)c2ccccc21 [FDA-NAF, fluorescein diacetate, reference compound]
aberrant enzyme activity, LYMPHS (lymphocytes [1]; P88 Enteritis): .smallcircle.
aberrant enzyme activity, LYMPHS (lymphocytes [1]; P97 Pyelonephritis): .smallcircle.
aberrant enzyme activity, LYMPHS (lymphocytes [1]; P99 Viral Syndrome): .smallcircle.
aberrant enzyme activity, LYMPHS (lymphocytes [1]; P102 UTI): .smallcircle.
aberrant enzyme activity, GRANS (granulocytes [2]; P88 Enteritis): .smallcircle.
aberrant enzyme activity, GRANS (granulocytes [2]; P97 Pyelonephritis): .smallcircle.
aberrant enzyme activity, GRANS (granulocytes [2]; P102 UTI): .smallcircle.
NORMAL LEUKOCYTE ENZYME ACTIVITY LYMPHS Mean (lymphocytes [3]): 17.98
aberrant enzyme activity, MONOS (monocytes; P88 Enteritis): .smallcircle.
aberrant enzyme activity, MONOS (monocytes; P97 Pyelonephritis): .smallcircle.

aberrant enzyme activity, LYMPHS (lymphocytes [1]; P88 Enteritis): .smallcircle.
aberrant enzyme activity, LYMPHS (lymphocytes [1]; P89 Viral Stomatitis): .smallcircle.
aberrant enzyme activity, LYMPHS (lymphocytes [1]; P92 Adenitis): .smallcircle.
aberrant enzyme activity, LYMPHS (lymphocytes [1]; P97 Pyelonephritis): .smallcircle.
aberrant enzyme activity, LYMPHS (lymphocytes [1]; P103 Viral Syndrome): .smallcircle.
aberrant enzyme activity, GRANS (granulocytes [2]; P88 Enteritis): .smallcircle.
aberrant enzyme activity, GRANS (granulocytes [2]; P89 Viral Stomatitis): .smallcircle.
aberrant enzyme activity, GRANS (granulocytes [2]; P92 Adenitis): .smallcircle.
aberrant enzyme activity, GRANS (granulocytes [2]; P97 Pyelonephritis): .smallcircle.
aberrant enzyme activity, GRANS (granulocytes [2]; P103 Viral Syndrome): .smallcircle.
NORMAL LEUKOCYTE ENZYME ACTIVITY LYMPHS Mean (lymphocytes [3]): 0.38
aberrant enzyme activity, MONOS (monocytes; P88 Enteritis): .smallcircle.
aberrant enzyme activity, MONOS (monocytes; P89 Viral Stomatitis): .smallcircle.
aberrant enzyme activity, MONOS (monocytes; P92 Adenitis): .smallcircle.
aberrant enzyme activity, MONOS (monocytes; P97 Pyelonephritis): .smallcircle.
aberrant enzyme activity, MONOS (monocytes; P103 Viral Syndrome): .smallcircle.
Structure (SMILES): O=C1OC2(c3ccc(OC4O[C@H](CO)[C@H](O)[C@H](O)[C@H]4O)cc3Oc3cc(OC4O[C@H](CO)[C@H](O)[C@H](O)[C@H]4O)ccc32)c2ccccc21 (stereo partly drawn) [GALAC, (D-galactose)2 fluorescein]

Structure (SMILES): C[C@H](NC(=O)[C@@H](N)CCCCN)C(=O)Nc1ccc2c(c1)Oc1cc(NC(=O)[C@H](C)NC(=O)[C@@H](N)CCCCN)ccc1C21OC(=O)c2ccccc21 [KA-M, (Lys-Ala)2 Rho 110]
aberrant enzyme activity, LYMPHS (lymphocytes [1]; P88 Enteritis): .smallcircle.
aberrant enzyme activity, LYMPHS (lymphocytes [1]; P89 Viral Stomatitis): .smallcircle.
aberrant enzyme activity, LYMPHS (lymphocytes [1]; P92 Adenitis): .smallcircle.
aberrant enzyme activity, LYMPHS (lymphocytes [1]; P95 Viral Syndrome): .smallcircle.
aberrant enzyme activity, LYMPHS (lymphocytes [1]; P96 Viral Syndrome): .smallcircle.
aberrant enzyme activity, LYMPHS (lymphocytes [1]; P97 Pyelonephritis): .smallcircle.
aberrant enzyme activity, LYMPHS (lymphocytes [1]; P99 Viral Syndrome, listed as Lys/Ala-M): + (>0.25 Increase over normal range)
aberrant enzyme activity, LYMPHS (lymphocytes [1]; P102 UTI): .smallcircle.
aberrant enzyme activity, LYMPHS (lymphocytes [1]; P103 Viral Syndrome): .smallcircle.
aberrant enzyme activity, GRANS (granulocytes [2]; P88 Enteritis): .smallcircle.
aberrant enzyme activity, GRANS (granulocytes [2]; P89 Viral Stomatitis): .smallcircle.
aberrant enzyme activity, GRANS (granulocytes [2]; P92 Adenitis): .smallcircle.
aberrant enzyme activity, GRANS (granulocytes [2]; P95 Viral Syndrome): .smallcircle.
aberrant enzyme activity, GRANS (granulocytes [2]; P96 Viral Syndrome): .smallcircle.
aberrant enzyme activity, GRANS (granulocytes [2]; P97 Pyelonephritis): .smallcircle.
aberrant enzyme activity, GRANS (granulocytes [2]; P99 Viral Syndrome): .smallcircle.
aberrant enzyme activity, GRANS (granulocytes [2]; P102 UTI): .smallcircle.
aberrant enzyme activity, GRANS (granulocytes [2]; P103 Viral Syndrome): .smallcircle.
NORMAL LEUKOCYTE ENZYME ACTIVITY LYMPHS Mean (lymphocytes [3]): 0.55
aberrant enzyme activity, MONOS (monocytes; P88 Enteritis, listed as Lys/Ala-M): - (>0.25 Decrease over normal range)
aberrant enzyme activity, MONOS (monocytes; P89 Viral Stomatitis, listed as Lys/Ala-M): - (>0.25 Decrease over normal range)
aberrant enzyme activity, MONOS (monocytes; P92 Adenitis, listed as Lys/Ala-M): - (>0.25 Decrease over normal range)
aberrant enzyme activity, MONOS (monocytes; P95 Viral Syndrome, listed as Lys/Ala-M): - (>0.25 Decrease over normal range)
aberrant enzyme activity, MONOS (monocytes; P96 Viral Syndrome, listed as Lys/Ala-M): - (>0.25 Decrease over normal range)
aberrant enzyme activity, MONOS (monocytes; P97 Pyelonephritis, listed as Lys/Ala-M): - (>0.25 Decrease over normal range)
aberrant enzyme activity, MONOS (monocytes; P99 Viral Syndrome): .smallcircle.
aberrant enzyme activity, MONOS (monocytes; P102 UTI): .smallcircle.
aberrant enzyme activity, MONOS (monocytes; P103 Viral Syndrome, listed as Lys/Ala-M): - (>0.25 Decrease over normal range)

Structure (SMILES): CC(C)[C@H](N)C(=O)N[C@@H](CO)C(=O)Nc1ccc2c(c1)Oc1cc(NC(=O)[C@H](CO)NC(=O)[C@@H](N)C(C)C)ccc1C21OC(=O)c2ccccc21 [VS, (H-L-Val--Ser)2 Rho 110 .2TFA]
aberrant enzyme activity, LYMPHS (lymphocytes [1]; P95 Viral Syndrome): .smallcircle.
aberrant enzyme activity, LYMPHS (lymphocytes [1]; P96 Viral Syndrome): .smallcircle.
aberrant enzyme activity, LYMPHS (lymphocytes [1]; P97 Pyelonephritis): .smallcircle.
aberrant enzyme activity, LYMPHS (lymphocytes [1]; P103 Viral Syndrome): .smallcircle.
enzyme activity, Lymphs (lymphocytes [4]; J4 11/21/91 acute leuk.): 0.05
enzyme activity, Lymphs (lymphocytes [4]; J4 12/2/91 A L): 0.03
enzyme activity, Lymphs (lymphocytes [4]; J4 12/3/91 acute leuk.): 0.04
enzyme activity, Lymphs (lymphocytes [4]; J5 11/27/91 A M L): 0.05
enzyme activity, Lymphs (lymphocytes [4]; J19 11/27/91 C L L): 0.01
enzyme activity, Lymphs (lymphocytes [4]; J22 12/2/91 A M L): 0.01
enzyme activity, Lymphs (lymphocytes [4]; J22 12/9/91 A M L): 0.04
enzyme activity, Lymphs (lymphocytes [4]; N191 normal): 0.14
enzyme activity, Lymphs (lymphocytes [4]; N192 normal): 0.08
enzyme activity, Lymphs (lymphocytes [4]; N193 normal): 0.09
enzyme activity, Lymphs (lymphocytes [4]; N194 normal): 0.07
enzyme activity, Lymphs (lymphocytes [4]; N195 normal): 0.06
enzyme activity, Lymphs (lymphocytes [4]; N197 normal): 0.11
enzyme activity, Lymphs (lymphocytes [4]; N199 normal): 0.03
enzyme activity, Lymphs (lymphocytes [4]; N200 normal): 0.06
enzyme activity, Lymphs (lymphocytes [4]; N201 normal): 0.07
enzyme activity, Lymphs (lymphocytes [4]; N202 normal): 0.04
enzyme activity, Lymphs (lymphocytes [4]; N206 normal): 0.28
enzyme activity, Lymphs (lymphocytes [4]; P68 tachycardia): 0.05
enzyme activity, Lymphs (lymphocytes [4]; P69 pancreatic CA): 0.18
enzyme activity, Lymphs (lymphocytes [4]; P70 cirrhosis/hemobilia): 0.04
enzyme activity, Lymphs (lymphocytes [4]; P71 ac. pyelonephritis): 0.08
MEAN DELTA FL ([5]; HIV + PATIENTS): 32.5
MEAN DELTA FL ([5]; NORMALS): 24.6
aberrant enzyme activity, GRANS (granulocytes [2]; P96 Viral Syndrome): .smallcircle.
aberrant enzyme activity, GRANS (granulocytes [2]; P97 Pyelonephritis): .smallcircle.
aberrant enzyme activity, GRANS (granulocytes [2]; P103 Viral Syndrome): .smallcircle.
enzyme activity, Grans (granulocytes [6]; J4 11/21/91 acute leuk.): 0.37
enzyme activity, Grans (granulocytes [6]; J4 12/2/91 A L): 0.14
enzyme activity, Grans (granulocytes [6]; J4 12/3/91 acute leuk.): 0.23
enzyme activity, Grans (granulocytes [6]; J22 12/2/91 A M L): 0.22
enzyme activity, Grans (granulocytes [6]; J22 12/9/91 A M L): 0.32
enzyme activity, Grans (granulocytes [6]; N191 normal): 0.64
enzyme activity, Grans (granulocytes [6]; N192 normal): 0.40
enzyme activity, Grans (granulocytes [6]; N193 normal): 0.44
enzyme activity, Grans (granulocytes [6]; N194 normal): 0.29
enzyme activity, Grans (granulocytes [6]; N195 normal): 0.37
enzyme activity, Grans (granulocytes [6]; N197 normal): 0.58
enzyme activity, Grans (granulocytes [6]; N199 normal): 0.14
enzyme activity, Grans (granulocytes [6]; N200 normal): 0.24
enzyme activity, Grans (granulocytes [6]; N201 normal): 0.32
enzyme activity, Grans (granulocytes [6]; N202 normal): 0.24
enzyme activity, Grans (granulocytes [6]; P68 tachycardia): 0.33
enzyme activity, Grans (granulocytes [6]; P69 pancreatic CA): 0.57
enzyme activity, Grans (granulocytes [6]; P70 cirrhosis/hemobilia): 0.26
enzyme activity, Grans (granulocytes [6]; P71 ac. pyelonephritis): 0.69
aberrant enzyme activity, MONOS (monocytes; P96 Viral Syndrome): .smallcircle.
aberrant enzyme activity, MONOS (monocytes; P103 Viral Syndrome): .smallcircle.
